Test results as given in DBAASP.
In brackets after ≈: the same amount, converted by molar mass.

What was measured:
Assay in all cases: ≥ marks a high value that may be exact or a test limit, other limits are often not marked, values filed in µg/mL are converted to µM
Staphylococcus aureus = test system: Staphylococcus aureus
Bacillus megaterium = test system: Bacillus megaterium
Escherichia coli 1106 = test system: Escherichia coli 1106
Enterococcus faecalis = test system: Enterococcus faecalis
[1] = test system: Pseudoalteromonas carrageenovora ATCC 43555
Micrococcus luteus = test system: Micrococcus luteus
Escherichia coli D31 = test system: Escherichia coli D31
Escherichia coli D22 = test system: Escherichia coli D22
Salmonella typhimurium = test system: Salmonella typhimurium
Aerococcus viridans = test system: Aerococcus viridans
Pseudomonas alginovora = test system: Pseudomonas alginovora
[2] = test system: Escherichia coli KCTC 1682
[3] = test system: Streptococcus pyogenes KCTC 3096
[4] = test system: Candida albicans TIMM 1768
[5] = test system: Salmonella typhimurium KCTC 1926
[6] = test system: Pseudomonas aeruginosa KCTC 1637
[7] = test system: Bacillus subtilis KCTC 1918
[8] = test system: Staphylococcus aureus KCTC 1621
[9] = test system: Aspergillus fumigatus KCTC 4165
[10] = test system: Escherichia coli PCM 2057
[11] = test system: Staphylococcus aureus PCM 1944
Pseudomonas aeruginosa = test system: Pseudomonas aeruginosa
[12] = test system: Salmonella enterica serovar Typhimurium
[13] = test system: Escherichia coli O157:H7 ATCC 35150
Theileria equi = test system: Theileria equi
[14] = test system: Streptococcus mutans comD
[15] = test system: Streptococcus sanguinis NY101
[16] = test system: Streptococcus gordonii DL1
[17] = test system: Streptococcus mutans UA159
[18] = test system: Bacillus subtilis KCCM 11495
[19] = test system: Escherichia coli KCCM 11569

`C[C@@H]1NC(=O)[C@H](Cc2c[nH]c3ccccc23)NC(=O)CNC(=O)[C@H](CCCCN)NC(=O)[C@@H]2CSSC[C@@H](C(=O)O)NC(=O)[C@H](CCCN=C(N)N)NC(=O)[C@H](Cc3ccccc3)NC(=O)[C@@H]3CSSC[C@H](NC(=O)[C@H](CCCCN)NC(=O)[C@H](C)NC(=O)[C@H](CCCCN)NC(=O)[C@@H]4CSSC[C@H](NC(=O)[C@H](Cc5ccc(O)cc5)NC(=O)[C@H](CSSC[C@H](NC(=O)CN)C(=O)N[C@@H](C)C(=O)N[C@@H](CO)C(=O)N[C@@H](CCCN=C(N)N)C(=O)N4)NC(=O)[C@H](CCCN=C(N)N)NC(=O)CNC(=O)[C@H](CCCN=C(N)N)NC(=O)[C@H](Cc4ccccc4)NC(=O)[C@H](CO)NC(=O)[C@H](C)NC(=O)[C@H](CO)NC1=O)C(=O)N[C@@H](CCCCN)C(=O)N3)C(=O)N[C@@H](C)C(=O)NCC(=O)N[C@@H](CCCN=C(N)N)C(=O)N[C@@H](CCCN=C(N)N)C(=O)N2` [GCASRCKAKCAGRRCKGWASASFRGRCYCKCFRC] was tested, and the MIC (Staphylococcus aureus) was 7.07 µM (≈ 26.7 µg/mL), the MIC (Bacillus megaterium) was 0.849 µM (≈ 3.2 µg/mL) and the MIC (Escherichia coli 1106) was 10 µM (≈ 37.7 µg/mL). The MIC (Enterococcus faecalis) was 3.54 µM (≈ 13.3 µg/mL), the MIC [1] was 3.54 µM (≈ 13.3 µg/mL) and the MIC (Micrococcus luteus) was 0.849 µM (≈ 3.2 µg/mL). For the same compound, the MIC (Escherichia coli D31) was 3.54 µM (≈ 13.3 µg/mL), the MIC (Escherichia coli D22) was 7.07 µM (≈ 26.7 µg/mL) and the MIC (Salmonella typhimurium) was 10 µM (≈ 37.7 µg/mL). It also gave an MIC (Aerococcus viridans) of 0.849 µM (≈ 3.2 µg/mL) and an MIC (Pseudomonas alginovora) of 3.54 µM (≈ 13.3 µg/mL).

With `CC[C@H](C)[C@H](NC(=O)[C@H](CCCCN)NC(=O)[C@H](CCCCN)NC(=O)[C@H](CC(C)C)NC(=O)[C@H](CCCCN)NC(=O)[C@H](CCC(=O)O)NC(=O)CN)C(=O)NCC(=O)N[C@@H](CCC(N)=O)C(=O)N[C@@H](CCCCN)C(=O)N[C@H](C(=O)N[C@@H](CCCCN)C(=O)N[C@@H](CC(N)=O)C(=O)N[C@@H](Cc1ccccc1)C(=O)N[C@@H](Cc1ccccc1)C(=O)N[C@@H](CCCCN)C(=O)N[C@@H](CCCCN)C(=O)N[C@@H](CC(C)C)C(=O)O)[C@@H](C)CC` [GEKLKKIGQKIKNFFKKL] the MIC [2] was 6.25 µM (≈ 13.4 µg/mL), the MIC [3] was 12.5 µM (≈ 26.8 µg/mL) and the MIC [4] was 25 µM (≈ 53.7 µg/mL). The MIC [5] was 6.25 µM (≈ 13.4 µg/mL), the MIC [6] was 3.12 µM (≈ 6.7 µg/mL) and the MIC [7] was 6.25 µM (≈ 13.4 µg/mL). It also gave an MIC [8] of 6.25 µM (≈ 13.4 µg/mL) and an MIC [9] of 25 µM (≈ 53.7 µg/mL).

For `CC[C@H](C)[C@H](N)C(=O)NCC(=O)N[C@H]1CSSC[C@@H](C(=O)N[C@@H](Cc2ccccc2)C(=O)N[C@H](C(=O)N[C@@H](CCCCN)C(N)=O)C(C)C)NC(=O)[C@@H]2CCCN2C(=O)[C@H](CCCN=C(N)N)NC(=O)[C@@H]2CCCN2C(=O)[C@@H]2CCCN2C(=O)[C@H]([C@@H](C)CC)NC(=O)[C@H](CO)NC(=O)[C@H](CCCCN)NC(=O)[C@H]([C@@H](C)O)NC(=O)[C@H](Cc2c[nH]c3ccccc23)NC1=O` [IGCWTKSIPPRPCFVK], the MIC [10] was ≥ 546 µM and the MIC [11] was ≥ 546 µM.

With `CC[C@H](C)[C@H](NC(=O)CNC(=O)[C@H](C)NC(=O)[C@H](CS)NC(=O)[C@H](Cc1ccc(O)cc1)NC(=O)CNC(=O)CNC(=O)[C@H](CCCN=C(N)N)NC(=O)[C@H](CCCN=C(N)N)NC(=O)CNC(=O)[C@@H](NC(=O)[C@@H](N)CO)[C@@H](C)CC)C(=O)N[C@H](C(=O)N[C@@H](CCCCN)C(=O)N[C@@H](CCC(N)=O)C(=O)N[C@H](C(=O)N[C@@H](CS)C(=O)N[C@H](C(=O)N[C@@H](CS)C(=O)N[C@@H](Cc1ccc(O)cc1)C(=O)N[C@@H](CCCN=C(N)N)C(=O)O)[C@@H](C)O)[C@@H](C)O)[C@@H](C)CC` [SIGRRGGYCAGIIKQTCTCYR] the MIC (Staphylococcus aureus) was 2 µM (≈ 4.61 µg/mL), the MIC (Pseudomonas aeruginosa) was 2 µM (≈ 4.61 µg/mL) and the MIC [12] was 10 µM (≈ 23.1 µg/mL). The MIC [13] was 2 µM (≈ 4.61 µg/mL) and the MIC (Theileria equi) was 5 µM (≈ 11.5 µg/mL).

Compound `CC(C)C[C@H](NC(=O)[C@H](CCCN=C(N)N)NC(=O)[C@H](Cc1ccccc1)NC(=O)[C@H](Cc1ccccc1)NC(=O)[C@@H](N)[C@@H](C)O)C(=O)N[C@@H](Cc1ccccc1)C(=O)N[C@@H](CC(N)=O)C(=O)N[C@@H](CCCN=C(N)N)C(=O)N[C@@H](CO)C(=O)NCC(=O)NCC(=O)NCC(=O)N[C@@H](Cc1ccccc1)C(=O)N[C@@H](CCCCN)C(=O)N[C@@H](CCCCN)C(=O)N[C@@H](Cc1ccccc1)C(=O)N[C@@H](Cc1c[nH]c2ccccc12)C(=O)N[C@@H](CCCCN)C(=O)N[C@@H](Cc1c[nH]c2ccccc12)C(=O)N[C@@H](Cc1ccccc1)C(=O)N[C@@H](CCCN=C(N)N)C(=O)N[C@@H](CCCN=C(N)N)C(=O)N[C@@H](Cc1ccccc1)C(=O)O` [TFFRLFNRSGGGFKKFWKWFRRF] has an MIC [14] of 2.5 µM (≈ 7.54 µg/mL), an MIC [15] of 20 µM (≈ 60.3 µg/mL) and an MIC [16] of 10 µM (≈ 30.2 µg/mL). The MIC [17] was 2.5 µM (≈ 7.54 µg/mL).

In the case of `CC(C)C[C@H](NC(=O)[C@@H](NC(=O)CNC(=O)[C@H](CCCCN)NC(=O)[C@H](C)NC(=O)[C@H](CS)NC(=O)[C@H](CC(N)=O)NC(=O)[C@H](CC(C)C)NC(=O)CNC(=O)[C@H](Cc1cnc[nH]1)NC(=O)[C@H](Cc1cnc[nH]1)NC(=O)[C@H](CC(C)C)NC(=O)[C@H](CC(C)C)NC(=O)[C@H](C)NC(=O)[C@H](CC(N)=O)NC(=O)[C@H](CC(C)C)NC(=O)[C@@H](N)Cc1c[nH]c2ccccc12)C(C)C)C(N)=O` [WLNALLHHGLNCAKGVL], the MIC [18] is reported as 0.538 µM (≈ 1 µg/mL) and the MIC [19] is reported as 1.52 µM (≈ 2.83 µg/mL).
